Key:
[1] = target: E. coli Tat machinery (IMVs containing overproduced TatABC) (Escherichia coli, UniProt P69423+P69425+P69428); assay: In vitro Tat transport assay of pre-SufI into IMVs, ATP as energy source; format: biochemical; conditions: hit compound 100 μM
Protocol: (§1) To directly test for inhibition of Tat transport, a gel-based in vitro Tat transport assay was performed using pre-SufI, an authentic Tat precursor protein [7]. In short, this assay consists of incubating a Tat substrate and a Δψ-generating energy source with inverted membrane vesicles (IMVs) containing overproduced TatABC, digesting remaining external protein with a protease, and then analyzing via SDS-PAGE. This assay was run twice using NADH and ATP (if warranted) as energy sources to generate the necessary Δψ. NADH generates a Δψ using respiratory proteins (i.e., the NADH dehydrogenase and cytochrome bo3 ubiquinol oxidase complexes) and ATP generates a Δψ by reversal of ATP synthase. A true Tat inhibitor would survive both assays. In contrast, a respiration inhibitor is expected to reduce Tat transport when only one of the two energy sources is used (except for an ionophore).
(§2) Fig 8 Effect of Hits from the Local HTS on In Vitro Tat Transport. (A) Tat transport assays of pre-SufI using NADH to generate a Δψ. […] Samples were treated with the protease proteinase K, run on SDS-PAGE, and analyzed by in-gel fluorescence imaging. Assays were run in duplicate. Band intensity corresponds to the amount of protein transported into the IMV lumen. The following 7 compounds survived this screen: 1^JS, 51^JS, 55^JS, 111^JS, 181^JS, 202^JS, and 140^JS (boxed in red). (B) Tat transport assays of pre-SufI using ATP to generate a Δψ. All 7 compounds surviving the screen in (A) were tested using a Tat transport assay performed identically to those in (A) except that ATP (1 mM) was used in place of NADH. […]
(§3) Isolation of inverted membrane vesicles (IMVs), Western blot analyses and purification of pre-SufI-IAC were performed as described previously. […] The presence of a Δψ was determined by measuring oxonol VI fluorescence in presence of Tat^+ IMVs (A280 = 0.5), as described previously, except that the translocation buffer lacked BSA. Steady-state fluorescence spectra and fluorescence intensities of whole cells producing mCherry proteins were determined with an SLM-8100 spectrofluorometer.

[2] = test system: E. coli Tat machinery (IMVs containing overproduced TatABC); assay: In vitro Tat transport assay of pre-SufI into IMVs, NADH as energy source; format: biochemical, Escherichia coli; conditions: out of 22 independent assays by three different people
Protocol: as §1
Fig 8 Effect of Hits from the Local HTS on In Vitro Tat Transport. (A) Tat transport assays of pre-SufI using NADH to generate a Δψ. Inverted membrane vesicles (IMVs; A280 = 5.0), the fluorescent substrate pre-SufI-IAC^Atto565 (90 nM), and NADH (4 mM) were incubated at 37°C for 30 min with DMSO (control) or with hit compound (20 μM). Samples were treated with the protease proteinase K, run on SDS-PAGE, and analyzed by in-gel fluorescence imaging. Assays were run in duplicate. Band intensity corresponds to the amount of protein transported into the IMV lumen. The following 7 compounds survived this screen: 1^JS, 51^JS, 55^JS, 111^JS, 181^JS, 202^JS, and 140^JS (boxed in red). (B) Tat transport assays of pre-SufI using ATP to generate a Δψ. All 7 compounds surviving the screen in (A) were tested using a Tat transport assay performed identically to those in (A) except that ATP (1 mM) was used in place of NADH. Compound 55^JS was eliminated by this assay—the other 6 compounds survived (boxed in red). (C) Chemical structure of compound 55^JS, N-(4,7-Dioxo-4,7-dihydro-2,1,3-benzoxadiazol-5-yl)acetamide.
Isolation of inverted membrane vesicles (IMVs), Western blot analyses and purification of pre-SufI-IAC were performed as described previously. Western blots were performed using rabbit anti-mCherry antibodies (1:10,000 dilution) in the presence of 0.1% Triton X-100 and 0.1% Tween 20. The pre-SufI-IAC protein was labeled with Atto565 maleimide, and the resultant fluorescent protein, pre-SufI-IAC^Atto565, was used as a substrate for the in vitro Tat transport assays (A280 = 5.0), as described previously. The presence of a Δψ was determined by measuring oxonol VI fluorescence in presence of Tat^+ IMVs (A280 = 0.5), as described previously, except that the translocation buffer lacked BSA. Steady-state fluorescence spectra and fluorescence intensities of whole cells producing mCherry proteins were determined with an SLM-8100 spectrofluorometer.
Supplementary file pone.0149659.s003.tiff: S3 Fig IC50's for Hit Compound 181^JS. (A) The total cellular mCherry fluorescence (live cell assay; n = 1), (B) the in vitro NADH-dependent Tat transport efficiency of pre-SufI (n = 1), and (C) the maximum transmembrane electrical potential gradient (n = 1) were measured for a range of concentrations of compound 181^JS (S2E Fig). (D) SDS-PAGE gel showing in-gel fluorescence data used in (B). For (A), cells expressing spTorA-mCherry-SsrA were grown under Tat^++ conditions in a 384-well plate in the presence of 0, 0.08, 0.15, 0.3, 0.63, 1.25, 2.5, 5, 10, 20, or 40 μM compound 181^JS, as described for the HTS assay (see Methods). For (B) and (C), IMVs were incubated with the same concentrations of compound 181^JS prior to initiation of Tat transport and Δψ generation by the addition of NADH, as described previously. The red curves are best-fits using y = d + (100-d)/(1+(x/IC50)^b), where b is a slope factor and d is the high concentration asymptote. (TIFF) Click here for additional data file.

[3] = test system: E. coli Tat machinery (IMVs containing overproduced TatABC); assay: In vitro Tat transport assay of pre-SufI into IMVs, ATP as energy source; format: biochemical, Escherichia coli; conditions: hit compound 100 μM
Protocol: as §1, §2, §3

Chain of E. coli Tat machinery (IMVs containing overproduced TatABC) (Escherichia coli, UniProt P69423+P69425+P69428) (P69423 2-258): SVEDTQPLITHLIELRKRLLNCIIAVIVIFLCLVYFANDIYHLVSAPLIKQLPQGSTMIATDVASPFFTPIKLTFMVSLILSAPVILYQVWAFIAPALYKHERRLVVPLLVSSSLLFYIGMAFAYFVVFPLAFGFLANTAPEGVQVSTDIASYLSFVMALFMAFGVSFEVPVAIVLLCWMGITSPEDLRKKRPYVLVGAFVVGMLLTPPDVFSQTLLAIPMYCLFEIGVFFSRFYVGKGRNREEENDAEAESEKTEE
Chain of E. coli Tat machinery (IMVs containing overproduced TatABC) (Escherichia coli, UniProt P69423+P69425+P69428) (P69425 whole entry): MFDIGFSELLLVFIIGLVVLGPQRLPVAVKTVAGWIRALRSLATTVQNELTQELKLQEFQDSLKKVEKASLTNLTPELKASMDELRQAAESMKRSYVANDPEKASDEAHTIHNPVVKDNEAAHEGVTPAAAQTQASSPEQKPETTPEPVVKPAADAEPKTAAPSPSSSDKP
Chain of E. coli Tat machinery (IMVs containing overproduced TatABC) (Escherichia coli, UniProt P69423+P69425+P69428) (P69428 whole entry): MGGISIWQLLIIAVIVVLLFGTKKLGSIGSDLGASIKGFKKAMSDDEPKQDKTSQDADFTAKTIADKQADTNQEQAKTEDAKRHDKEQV

N#CC1c2ccccc2-n2nncc2CN1Cc1cc(Cl)cc(Cl)c1 (stereo not drawn) [21^NIH, 5-[(3,5-dichlorophenyl)methyl]-4,6-dihydrotriazolo[1,5-a][1, 4]benzodiazepine-6-carbonitrile]
outcome of ATP-dependent in vitro Tat transport screen (survival = visible inhibition of Tat transport) [1]: survived

Oc1cc(Cl)ccc1Oc1ccc(Cl)cc1Cl [Compound 18^NIH, 5-Chloro-2-(2,4-dichlorophenoxy)phenol]
number of assays in which Tat transport was inhibited [2]: 12 times | outcome of ATP-dependent in vitro Tat transport screen (survival = visible inhibition of Tat transport) [3]: survived
